Columns and labels:
[1] = molecular target: GTPase KRas [G12D] (Homo sapiens, UniProt P01116, G12D); experiment: TR-FRET Assay
Method: Compounds of interest were prepared in a dose-response titration in DMSO, and 80 nL were added via Labcyte Echo to each well of a 384-well plate (Perkin Elmer 6008280). The His-tagged KRAS G12D protein (Amgen) was diluted to 20 nM in Assay Buffer (20 mM HEPES, pH 7.4, 10 mM MgCl2, 50 mM NaCl, 0.1% BSA, 0.01% Tween-20, 10 μM GDP) and 2 μL was added to the appropriate wells of the 384-well plate. The plate was incubated for 30 minutes at room temperature. Biotinylated KRPep-2d substrate (Amgen) was diluted to 20 nM in Assay Buffer and 2 μL was added to all wells and incubated for 1 hour at room temperature. Detection Reagent (0.4 nM LANCE Eu-W1024 Anti-6×His (Perkin Elmer AD0401), 5 nM streptavidin-d2 (Cisbio 610SADLA)) was prepared in Assay Buffer, then 4 μL was added to the plate and incubated for 1 hour at room temperature. Plates were read using PerkinElmer EnVision (ex: 320 nm, em1: 665 nm, em2: 615 nm) and em1/em2 data was used to generate curve fits using a 4-parameter logistic model to calculate IC50 values.

[2] = molecular target: GTPase KRas [G12D,C118A] (Homo sapiens, UniProt P01116, C118A/G12D); experiment: Coupled Nucleotide Exchange Assay
Method: Following compound pre-incubation, purified SOS protein (aa 564-1049) and GTP (Roche 10106399001) were added to the assay wells and incubated for an additional 30 min. To determine the extent of inhibition of SOS-mediated nucleotide exchange, purified GST-tagged cRAF (aa 1-149), nickel chelate AlphaLISA acceptor beads (PerkinElmer AL108R), and AlphaScreen glutathione donor beads (PerkinElmer 6765302) were added to the assay wells and incubated for 10 minutes. The assay plates were then read on a PerkinElmer EnVision Multilabel Reader, using AlphaScreen technology, and data were analyzed using a 4-parameter logistic model to calculate IC50 values.

GTPase KRas [G12D,C118A], sequence (P01116 whole entry G12D/C118A, looked up, the tested form may be a part): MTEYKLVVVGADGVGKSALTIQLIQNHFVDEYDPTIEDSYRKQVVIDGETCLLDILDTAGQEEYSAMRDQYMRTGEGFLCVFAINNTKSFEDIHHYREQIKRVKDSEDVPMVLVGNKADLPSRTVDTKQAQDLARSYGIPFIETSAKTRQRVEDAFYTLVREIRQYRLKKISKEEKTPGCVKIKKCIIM
GTPase KRas [G12D], sequence (P01116 whole entry G12D): as the sequence (P01116 whole entry G12D/C118A, looked up, the tested form may be a part) above, with A118C counted along it

Row | SMILES | IC50 [1] [nM] | IC50 [2] [nM]
1 | Cc1cc2[nH]ncc2c2c1CCCOC(=O)N1CC[C@@H]3CCN(C[C@@H]31)c1nc(OC[C@@]34CCCN3C[C@H](F)C4)nc3c(F)c-2ncc13 (mixture of isomers) [US20240294551, Example 75] | 20 | 13
2 | Cc1cc2[nH]ncc2c2c1CCCOC(=O)O[C@@H]1COCCN(C1)c1nc(OC[C@@]34CCCN3C[C@H](F)C4)nc3c(F)c-2c(F)cc13 [US20240294551, Example 102] | 3 | 2
3 | Fc1c2ncc3c(nc(OC[C@@]45CCCN4C[C@H](F)C5)nc13)N1CCC[C@@H](CSCCCCc3c(Cl)cc4[nH]ncc4c3-2)C1 [US20240294551, Example 143] | 3 | 2
4 | Fc1c2ncc3c(nc(OC[C@@]45CCCN4C[C@H](F)C5)nc13)N1CCC[C@H](C1)c1coc(n1)CCCc1c(Cl)cc3[nH]ncc3c1-2 [US20240294551, Example 157] | 2 | 1
5 | Cc1cc2[nH]ncc2c2c1CCCOC(=O)O[C@@H]1COCCN(C1)c1nc(OC[C@@]34CCCN3C[C@H](F)C4)nc3c(F)c-2ccc13 [US20240294551, Example 192] | 4 | 2
6 | CN(C)CC1(COc2nc3c4cnc(c(F)c4n2)-c2c(c(Cl)cc4[nH]ncc24)CCCOC(=O)O[C@@H]2COCCN3C2)CC1 [US20240294551, Example 195] | 4 | 2
7 | Fc1c2ncc3c(nc(OC[C@@]45CCCN4C[C@H](F)C5)nc13)N1CCOC[C@H](C1)c1noc(n1)CCCc1c(Cl)cc3[nH]ncc3c1-2 [US20240294551, Example 381] | 5 | 1
8 | O[C@@H]1CCOCCc2c(Cl)cc3[nH]ncc3c2-c2ncc3c(nc(OC[C@@]45CCCN4C[C@H](F)C5)nc3c2F)N2CCC[C@@H]1C2 [US20240294551, Example 404] | 10 | 6

— BindingDB's records for patent US20240294551 (Amgen, 2024)
